Measured values: the NIST ThermoML archive (doi:10.1021/je8004613)
± gives the expanded uncertainty stated by the source.

Assays:
[1] = 101.33 kPa, Liquid; for speed of sound: Pulse-echo method; for mass density: Vibrating tube method
[2] = excess molar enthalpy (molar enthalpy of mixing); xn = mol fraction of the nth substance listed; details: 298.15 K, 101 kPa, Liquid

## CCCCCCCC [octane]
[1]; 288.15 K
  speed of sound: 1213.6 ± 1 m/s
  mass density: 706.58 ± 0.23 kg/m3
[1]; 293.15 K
  speed of sound: 1193 ± 1 m/s
  mass density: 702.57 ± 0.23 kg/m3
[1]; 298.15 K
  speed of sound: 1171.9 ± 1 m/s
  mass density: 698.55 ± 0.23 kg/m3
[1]; 303.15 K
  speed of sound: 1151 ± 1 m/s
  mass density: 694.48 ± 0.23 kg/m3
[1]; 308.15 K
  speed of sound: 1130.3 ± 1 m/s
  mass density: 690.42 ± 0.23 kg/m3

## CCCCCCCC [octane] + CCCCO
[2]; x2 = 0.03632
  excess molar enthalpy: 0.0772 ± 0.00167 kcal/mol
[2]; x2 = 0.0645
  excess molar enthalpy: 0.102 ± 0.00191 kcal/mol
[2]; x2 = 0.1182
  excess molar enthalpy: 0.128 ± 0.00239 kcal/mol
[2]; x2 = 0.1568
  excess molar enthalpy: 0.137 ± 0.00239 kcal/mol
[2]; x2 = 0.2031
  excess molar enthalpy: 0.152 ± 0.00263 kcal/mol
[2]; x2 = 0.2488
  excess molar enthalpy: 0.158 ± 0.00287 kcal/mol
[2]; x2 = 0.299
  excess molar enthalpy: 0.163 ± 0.00287 kcal/mol
[2]; x2 = 0.345
  excess molar enthalpy: 0.164 ± 0.00287 kcal/mol
[2]; x2 = 0.4028
  excess molar enthalpy: 0.163 ± 0.00287 kcal/mol
[2]; x2 = 0.4499
  excess molar enthalpy: 0.16 ± 0.00287 kcal/mol
[2]; x2 = 0.5029
  excess molar enthalpy: 0.152 ± 0.00263 kcal/mol
[2]; x2 = 0.6034
  excess molar enthalpy: 0.134 ± 0.00239 kcal/mol
[2]; x2 = 0.6988
  excess molar enthalpy: 0.112 ± 0.00215 kcal/mol
[2]; x2 = 0.7979
  excess molar enthalpy: 0.0817 ± 0.00167 kcal/mol
[2]; x2 = 0.9005
  excess molar enthalpy: 0.0435 ± 0.0012 kcal/mol
[2]; x2 = 0.9493
  excess molar enthalpy: 0.0225 ± 0.000717 kcal/mol
